The target of experiment [1] is T1, Dihydroorotate dehydrogenase (quinone), mitochondrial [30-395] (Rattus norvegicus, UniProt Q63707).
T1 construct: 30-395
In words: Enzyme Inhibition Assay. The conditions noted are these: pH 8; 30 °C.

For experiment [2], the target named is Dihydroorotate dehydrogenase (quinone), mitochondrial (Rattus norvegicus, UniProt Q63707). In words: Enzyme Inhibition Assay. The following applies: pH 8; 30 °C.

SMILES strings stand for the structures.

Sequence of Dihydroorotate dehydrogenase (quinone), mitochondrial (Q63707 whole entry): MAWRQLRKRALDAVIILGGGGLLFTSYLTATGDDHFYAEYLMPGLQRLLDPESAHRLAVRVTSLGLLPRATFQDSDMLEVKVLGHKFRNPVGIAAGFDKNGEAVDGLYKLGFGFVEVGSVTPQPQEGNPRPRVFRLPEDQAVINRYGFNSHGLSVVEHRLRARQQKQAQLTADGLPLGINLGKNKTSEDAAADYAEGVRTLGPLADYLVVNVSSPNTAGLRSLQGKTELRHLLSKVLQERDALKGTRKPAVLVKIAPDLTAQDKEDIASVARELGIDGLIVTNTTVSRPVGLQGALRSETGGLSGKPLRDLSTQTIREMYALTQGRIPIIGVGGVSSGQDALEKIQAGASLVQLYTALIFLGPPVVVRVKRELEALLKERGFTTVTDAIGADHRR
T1 sequence (Q63707 30-395): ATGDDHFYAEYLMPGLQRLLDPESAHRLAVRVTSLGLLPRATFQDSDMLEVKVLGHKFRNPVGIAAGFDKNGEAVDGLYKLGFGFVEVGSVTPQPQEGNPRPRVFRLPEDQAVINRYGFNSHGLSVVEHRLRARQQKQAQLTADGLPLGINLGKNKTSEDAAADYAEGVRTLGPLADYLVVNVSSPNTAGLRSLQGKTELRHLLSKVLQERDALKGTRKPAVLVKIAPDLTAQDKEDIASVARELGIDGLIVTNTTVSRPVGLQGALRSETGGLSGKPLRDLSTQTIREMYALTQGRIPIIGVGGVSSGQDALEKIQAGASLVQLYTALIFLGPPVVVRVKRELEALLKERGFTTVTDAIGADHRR

Turning to `O=C1C(=O)C(C2CCC(c3ccc(Cl)cc3)CC2)C(=O)c2ccccc21` (configuration not stated) [Mepron], the half-inhibitory concentration (IC50) was determined as 0.904 µM in experiment [1] and 0.698 µM in experiment [2].

Usually IC50 stands for the midpoint of a concentration-inhibition curve.

The record behind these values is BindingDB's records for doi:10.1110/ps.03533004 (University of Copenhagen, 2004).
